According to patent US20240254138A1, “TRICYCLIC PYRIMIDINES AS CYCLIN-DEPENDENT KINASE 7 (CDK7) INHIBITORS” (JANSSEN PHARMACEUTICA NV, priority 2021, published 2024):
Read-outs that look alike come from different tables or passages of the source.

Legend:
[1] = test system: RNA Polymerase II Serine 5 phosphorylation (Rpb1 CTD, downstream substrate of CDK7) in A549 cells; assay: Imaging-based cellular RNA PolII Ser5 phosphorylation assay in A549 cells; type: cell-based, human; conditions: wild-type CDK7, RNA PolII Ser5 phosphorylation, averaged over all measurements; for IC50: Homo sapiens, A549, A549 cells, read-out: CDK7_A549 Wild-type CDK7 (pIC50) (converted); for CDK7_A549 Wild-type CDK7 (pIC50): A549 cells
How it was run: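 IC50 derived by fitting % control (DMSO high, 10 μM reference low) against concentration, with Hill slope. Readout: high-content imaging of phospho-Ser5 Rpb1 CTD antibody staining in fixed, permeabilized A549 cells exposed to compound 3 h after 20 h culture in 1% FBS DMEM.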

[2] = test system: RNA Polymerase II Serine 5 phosphorylation in A549 cells overexpressing CDK7-mutant (C312S); assay: Imaging-based cellular RNA PolII Ser5 phosphorylation assay in A549 cells overexpressing CDK7-mutant (C312S); type: cell-based, human; conditions: RNA PolII Ser5 phosphorylation, averaged over all measurements; for IC50: Homo sapiens, A549, A549 cells overexpressing CDK7-mutant (C312S), read-out: CDK7_A549 mutant hCDK7(pIC50) (converted); for CDK7_A549 mutant hCDK7(pIC50): A549 cells overexpressing CDK7-mutant (C312S)
How it was run: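 Readout was automated imaging of anti-phospho-Ser5 Rpb1 CTD immunofluorescence, with IC50 fitted to % control versus concentration. Cells were A549 stably overexpressing non-covalently targetable CDK7 C312S alongside wild-type, exposed to compound 3 h at 37 °C. DMSO and 10 μM reference compound served as controls.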

[3] = biological target: CDK7/cyclinH/MAT1 trimeric complex (Homo sapiens, UniProt P50613); assay: In vitro CDK7 assay, potency of irreversible covalent inhibitors (kinact/KI), coupled PK/LDH ADP readout at 340 nm; conditions: for Ki: CDK7 (20 nM enz.) (KI, μM); for kinact: read-out: CDK7 (20 nM enz.) (kinact, s^−1), 20 nM enzyme
CDK7/cyclinH/MAT1 trimeric complex, sequence (P50613 whole entry): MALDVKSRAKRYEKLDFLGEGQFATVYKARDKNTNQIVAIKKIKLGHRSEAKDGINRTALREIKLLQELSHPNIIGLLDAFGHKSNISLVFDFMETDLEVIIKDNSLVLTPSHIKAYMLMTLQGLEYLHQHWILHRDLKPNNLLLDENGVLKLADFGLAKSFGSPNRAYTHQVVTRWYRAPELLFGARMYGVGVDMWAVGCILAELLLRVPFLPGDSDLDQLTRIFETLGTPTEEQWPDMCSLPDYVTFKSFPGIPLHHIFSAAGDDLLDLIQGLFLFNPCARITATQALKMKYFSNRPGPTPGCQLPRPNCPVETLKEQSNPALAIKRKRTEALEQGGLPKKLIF
CDK7/cyclinH/MAT1 trimeric complex, sequence (P51946 whole entry partner): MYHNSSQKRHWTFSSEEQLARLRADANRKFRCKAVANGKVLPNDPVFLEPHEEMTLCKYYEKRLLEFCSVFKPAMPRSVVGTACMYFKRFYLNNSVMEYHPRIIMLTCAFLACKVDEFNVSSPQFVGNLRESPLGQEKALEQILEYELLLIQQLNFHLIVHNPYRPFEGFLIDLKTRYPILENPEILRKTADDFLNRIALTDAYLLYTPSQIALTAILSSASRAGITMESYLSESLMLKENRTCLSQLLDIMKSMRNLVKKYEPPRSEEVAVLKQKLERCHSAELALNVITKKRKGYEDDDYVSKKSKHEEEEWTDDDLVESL
CDK7/cyclinH/MAT1 trimeric complex, sequence (P51948 whole entry partner): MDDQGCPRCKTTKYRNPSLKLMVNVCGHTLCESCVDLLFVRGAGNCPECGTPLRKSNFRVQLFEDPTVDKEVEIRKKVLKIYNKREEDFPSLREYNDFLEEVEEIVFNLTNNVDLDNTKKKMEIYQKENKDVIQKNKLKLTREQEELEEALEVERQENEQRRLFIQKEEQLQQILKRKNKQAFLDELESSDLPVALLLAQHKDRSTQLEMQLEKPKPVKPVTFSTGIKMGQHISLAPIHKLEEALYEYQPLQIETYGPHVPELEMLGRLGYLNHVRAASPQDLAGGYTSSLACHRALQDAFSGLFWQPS

[4] = read-out: CDK7 (20 nM enz.) (kinact/KI, M^−1*s^−1), 20 nM enzyme
[5] = read-out: CDK7 (20 nM enz.) (kobs/[I], M^−1*s^−1), 20 nM enzyme

IC50 [1] [µM]	IC50 [2] [µM]	Ki ([3]; 20 nM enzyme) [µM]	kinact [3] [s⁻¹]	kinact/KI [3, 4] [M⁻¹ s⁻¹]	kinact/KI [3, 5] [M⁻¹ s⁻¹]	CDK7_A549 Wild-type CDK7 (pIC50) [1]	CDK7_A549 mutant hCDK7(pIC50) [2]	CDK7 (20 nM enz.) (kinact, s^−1) ([3]; 20 nM enzyme) [s⁻¹]	CDK7 (20 nM enz.) (kinact/KI, M^−1*s^−1) ([3]; 20 nM enzyme) [M⁻¹ s⁻¹]	CDK7 (20 nM enz.) (kobs/[I], M^−1*s^−1) ([3]; 20 nM enzyme) [M⁻¹ s⁻¹]	Compound
0.0708	> 10	0.0621	3.74e-05	603	–	–	–	–	–	–	C=C(C(=O)N1CC[C@H](N2CCC(c3cc4c(c(C)n3)OCc3c(-c5cnn(C)c5)ccnc3N4)CC2)C1)n1cccn1 (single isomer, unassigned) [Compound 372]
0.457	> 10	1.36	3.18e-05	23.3	–	–	–	–	–	–	CC#CC(=O)N1CCC(N2CC(c3cc4c(c(C5CC5)n3)O[C@@H](C)c3c(N5CCOCC5)ccnc3N4)C2)CC1 (single isomer, unassigned) [Compound 374]
1.29	> 10	2.12	2.58e-05	12.2	–	–	–	–	–	–	C=CC(=O)N1CCC(N2CC(c3cc4c(c(C5CC5)n3)O[C@@H](C)c3c(N5CCOCC5)ccnc3N4)C2)CC1 (single isomer, unassigned) [Compound 375]
0.0355	5.01	0.0467	9.41e-05	2020	–	–	–	–	–	–	CC#CC(=O)N1CCC(N2CC(c3cc4c(c(C5CC5)n3)O[C@H](C)c3c(N5CCOCC5)ccnc3N4)C2)CC1 (single isomer, unassigned) [Compound 376]
0.0501	5.75	0.0468	2.2e-05	469	–	–	–	–	–	–	C=CC(=O)N1CCC(N2CC(c3cc4c(c(C5CC5)n3)O[C@H](C)c3c(N5CCOCC5)ccnc3N4)C2)CC1 (single isomer, unassigned) [Compound 377]
1.62	> 10	0.399	1.64e-05	41.1	–	–	–	–	–	–	CC#CC(=O)N1CC(N2CC[C@@H](c3cc4c(c(C)n3)OCc3c(N5CCOCC5)ccnc3N4)C2)C1 (single isomer, unassigned) [Compound 386]
0.977	> 10	0.451	2.21e-05	49.1	–	–	–	–	–	–	CC#CC(=O)N1CC(N2CC[C@H](c3cc4c(c(C)n3)OCc3c(N5CCOCC5)ccnc3N4)C2)C1 (single isomer, unassigned) [Compound 387]
~0.0229	7.24	–	–	–	1270	–	–	–	–	–	C=CC(=O)N1CC[C@H](N2CC(c3cc(C)c4c(c3)Nc3nccc(N5CCOCC5)c3[C@@H](C)O4)C2)C1 (single isomer, unassigned) [Compound 388]
0.129	~10	0.0655	5.4e-05	823	–	–	–	–	–	–	C=CC(=O)N1CC(N2CC[C@@H](c3cc4c(c(C)n3)O[C@@H](C)c3c(N5CCOCC5)ccnc3N4)C2)C1 (single isomer, unassigned) [Compound 392]
0.0302	6.17	–	–	–	1630	–	–	–	–	–	C=CC(=O)N1CC[C@@H](N2CC(c3cc(C)c4c(c3)Nc3nccc(N5CCOCC5)c3[C@@H](C)O4)C2)C1 (single isomer, unassigned) [Compound 398]
–	–	0.0823	–	–	–	7.1	5.15	0.000126	1530.27	–	C=CC(=O)N1CC[C@@H](N2CC(c3cc4c(c(C(F)(F)F)n3)OCc3c(N5CCOCC5)ccnc3N4)C2)C1 (single isomer, unassigned) [Compound 402]
–	–	–	–	–	–	7.13	5.09	–	–	1280.59	C=CC(=O)N1CC[C@H](N2CC(c3cc4c(c(C(F)(F)F)n3)OCc3c(N5CCOCC5)ccnc3N4)C2)C1 (single isomer, unassigned) [Compound 404]
~0.00977	1.82	0.495	0.000181	366	–	–	–	–	–	–	C=CC(=O)N1CCC(N2CCC(c3cc4c(c(C)n3)O[C@H](C)c3c(N5CCOCC5)ccnc3N4)CC2)CC1 (single isomer, unassigned) [Compound 406]
0.288	> 10	3.4	0.000106	31.3	–	–	–	–	–	–	C=CC(=O)N1CCC(N2CCC(c3cc4c(c(C)n3)O[C@@H](C)c3c(N5CCOCC5)ccnc3N4)CC2)CC1 (single isomer, unassigned) [Compound 411]
0.0759	> 10	0.0374	4.94e-05	1320	–	–	–	–	–	–	C=CC(=O)N1CC[C@@H](N2CC(c3cc4c(c(C)n3)O[C@H](C)c3c(C5CCOCC5)ccnc3N4)C2)C1 (single isomer, unassigned) [Compound 413]
1.82	> 10	2.22	7.43e-05	33.5	–	–	–	–	–	–	C=CC(=O)N1CC(N2CCC(c3cc4c(c(C)n3)O[C@@H](C)c3c(C5CCOCC5)ccnc3N4)CC2)C1 (single isomer, unassigned) [Compound 415]
< 0.00977	1.86	–	–	–	1750	–	–	–	–	–	CC#CC(=O)N1CCC(N2CCC(c3cc4c(c(C)n3)O[C@H](C)c3c(N5CCOCC5)ccnc3N4)CC2)CC1 (single isomer, unassigned) [Compound 416]
0.257	8.71	0.0692	2.87e-05	415	–	–	–	–	–	–	CC#CC(=O)N1CC[C@H](N2CC(c3cc4c(c(C5CC5)n3)OCc3c(N5CCOCC5)ccnc3N4)C2)C1 (single isomer, unassigned) [Compound 418]
–	–	0.064	7.59e-05	–	–	7.02	5	–	1185.66	–	C=CC(=O)N1CC[C@H](N2CC(c3cc4c(c(C5CC5)n3)OCc3c(N5CCOCC5)ccnc3N4)C2)C1 (single isomer, unassigned) [Compound 421]
0.115	> 10	0.0415	4.6e-05	1110	–	–	–	–	–	–	C=CC(=O)N1CC[C@H](N2CC(c3cc4c(c(C)n3)O[C@H](C)c3c(C5CCOCC5)ccnc3N4)C2)C1 (single isomer, unassigned) [Compound 422]
0.2	> 10	0.0971	2.48e-05	255	–	–	–	–	–	–	CC#CC(=O)N1CC[C@@H](N2CC(c3cc4c(c(C5CC5)n3)OCc3c(N5CCOCC5)ccnc3N4)C2)C1 (single isomer, unassigned) [Compound 425]
0.0631	> 10	0.642	4.43e-05	69	–	–	–	–	–	–	CC#CC(=O)N1CCC(N2CCC(c3cc4c(c(C)n3)O[C@@H](C)c3c(N5CCOCC5)ccnc3N4)CC2)CC1 (single isomer, unassigned) [Compound 426]
–	–	0.0447	–	–	–	6.99	<5	7.839e-05	1751.84	–	C=CC(=O)N1CC[C@@H](N2CC(c3cc4c(c(C5CC5)n3)OCc3c(N5CCOCC5)ccnc3N4)C2)C1 (single isomer, unassigned) [Compound 427]
0.17	5.37	0.185	1.89e-05	102	–	–	–	–	–	–	CC#CC(=O)N1CCC(N2CC[C@@H](c3cc4c(c(C)n3)OCc3c(N5CCOCC5)ccnc3N4)C2)CC1 (single isomer, unassigned) [Compound 433]
0.17	> 10	0.0822	2.31e-05	282	–	–	–	–	–	–	CC#CC(=O)N1CC(n2cc(-c3cc4c(c(C)n3)O[C@@H](C)c3c(N5CCOCC5)ccnc3N4)cn2)C1 (single isomer, unassigned) [Compound 437]
–	–	0.205	–	–	–	6.79	<5	0.000050424	246.333	–	CC#CC(=O)N1CC(N2CC(c3cc4c(c(C)n3)O[C@H](C)c3c(N5CCOCC5)ccnc3N4)C2)C1 (single isomer, unassigned) [Compound 440]
0.562	> 10	0.772	3.46e-05	44.8	–	–	–	–	–	–	CC#CC(=O)N1CC(N2CCC(c3cc(C#N)c4c(c3)Nc3nccc(N5CCOCC5)c3[C@H](C)O4)CC2)C1 (single isomer, unassigned) [Compound 442]
0.0204	4.27	–	–	–	1430	–	–	–	–	–	CC#CC(=O)N1CC(N2CCC(c3cc(C#N)c4c(c3)Nc3nccc(N5CCOCC5)c3C(C)O4)CC2)C1 (single isomer, unassigned) [Compound 443]
0.123	8.51	0.0844	6.94e-05	823	–	–	–	–	–	–	C=CC(=O)N1CC[C@@H](N2CC(c3cc4c(c(C5CC5)n3)OCc3c(C5CCOCC5)ccnc3N4)C2)C1 (single isomer, unassigned) [Compound 445]
